The source of these data is patent US20050014811A1, “Substituted benzimidazole compounds and their use for the treatment of cancer” (Aventis Pharma S.A., priority 2001, published 2005).

For this experiment, the target named is CDK4/CyclinD1 (Homo sapiens, UniProt P11802). Nature of the experiment: CDK4/CyclinD1 Flashplate assay, 96-well format, biotinylated-Rb peptide substrate. Type of experiment: biochemical. As for the experimental part: This is a CDK4/CyclinD1 kinase assay in a 96-well Streptavidin-coated Flashplate with a biotinylated-Rb peptide substrate.
Each point is tested in duplicate
Biotinylated-Rb: Biotin-[…]
• 1. Prepare substrate: 1 mg/ml solution made fresh in PBS. • 2. Add 100 μg per well to the Flashplate. • 3. Incubate for 2 hours at RT. • 4. From 10 mM inhibitor stocks in DMSO, make 1 mM, 300 μM, 100 μM, 30 μM and 10 μM series of dilution in DMSO. • 5. Wash the Flashplate 3 times with 300 μl PBS to remove unbound peptide substrate. • 6. Add the CDK4/CyclinD1 kinase: 70 ng per well, in a volume of 90 μl in kinase buffer (except for “no enzyme” control wells). • 7. Add 1 μl^1 per well of inhibitor to test 10 μM, 3 μM, 1 μM, 0.3 μM and 0.1 μM in final concentration per 100 μl in each well. • 8. Shake gently the Flashplate 1 minute. • 9. Incubate 30 minutes on wet ice. • 10. Initiate the reaction with 10 μl kinase buffer containing 1 μM final cold ATP and 1 μCi final ^33P-ATP per well. • 11. Shake gently the Flashplate 1 minute. • 12. Incubate 45 minutes at RT (no shaking). • 13. Wash the Flashplate 3 times with 300 μl PBS • 14. Count to detect the incorporation of ^33P-ATP by the kinase to the Rb phosphorylation site.

CDK4/CyclinD1, sequence (P11802 whole entry, species assumed): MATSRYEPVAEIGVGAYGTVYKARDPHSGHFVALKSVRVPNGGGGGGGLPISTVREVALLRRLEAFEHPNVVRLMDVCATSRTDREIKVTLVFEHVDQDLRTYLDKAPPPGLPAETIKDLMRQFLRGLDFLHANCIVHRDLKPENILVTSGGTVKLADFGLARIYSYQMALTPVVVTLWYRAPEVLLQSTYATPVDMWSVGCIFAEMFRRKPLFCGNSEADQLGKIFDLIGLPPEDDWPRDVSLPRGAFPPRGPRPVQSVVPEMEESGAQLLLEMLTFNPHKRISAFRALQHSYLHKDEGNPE
CDK4/CyclinD1, sequence (P24385 whole entry partner, species assumed): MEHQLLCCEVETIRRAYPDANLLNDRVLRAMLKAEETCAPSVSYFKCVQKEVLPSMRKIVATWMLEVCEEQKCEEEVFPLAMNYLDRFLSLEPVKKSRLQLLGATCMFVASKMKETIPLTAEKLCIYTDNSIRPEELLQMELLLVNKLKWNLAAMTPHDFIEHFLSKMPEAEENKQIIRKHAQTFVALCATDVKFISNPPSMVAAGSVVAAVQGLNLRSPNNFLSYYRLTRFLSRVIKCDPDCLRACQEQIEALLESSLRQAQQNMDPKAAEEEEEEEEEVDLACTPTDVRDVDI

In turn, “4-Benzylamino-benzenesulfonic acid 2-(cyclopropanecarbonyl-amino)-1H-benzoimidazol-5-yl ester [Example 60-a]” registered an IC50 of 0.8 µM.

Regarding `COC(=O)Nc1nc2cc(OS(=O)(=O)c3ccc(NC(C)CO)cc3)ccc2[nH]1` (stereo not drawn) [Example 8, Methyl-5-(4-[1-methyl,2-hydroxyethyl]aminophenyl-sulfonyloxy) benzimidazole-2-carbamate], the IC50 is 1.1 µM.

`COC(=O)Nc1nc2cc(OS(=O)(=O)c3ccc(NCC(C)O)cc3)ccc2[nH]1` (stereo not drawn) [Example 9, Methyl-5-(4-[2-methyl,2-hydroxyethyl]aminophenyl-sulfonyloxy) benzimidazole-2-carbamate]: the concentration for half-maximal inhibition (IC50) turned out to be 2 µM.

`CCCCNc1ccc(S(=O)(=O)Oc2ccc3[nH]c(NC(=O)OC)nc3c2)cc1` [Example 12, Methyl-5-(4-butylaminophenylsulfonyloxy) benzimidazole-2-carbamate] registered an inhibition at 10 µM of 14%.

On to `Nc1nc2cc(OS(=O)(=O)c3ccc(NC4CCCC4)cc3)ccc2[nH]1` [Example 22, 5-(4-cyclopentylaminophenylsulfonyloxy)-1H-benzimidazole-2-ylamine], for which the IC50 worked out at 1.77 µM.

`NC(=O)C1CCCN1C(=O)Nc1nc2cc(OS(=O)(=O)c3ccc(NC4CCCC4)cc3)ccc2[nH]1` (stereo not drawn) [Example 58-ae, 4-Cyclopentylamino-benzenesulfonic acid 2-[(2S-carbamoyl-pyrrolidine-1-carbonyl)-amino]-1H-benzoimidazol-5-yl ester]: half-maximal inhibition (IC50) was put at 1.49 µM.

On to `CCOC(=O)CCCNC(=O)Nc1nc2cc(OS(=O)(=O)c3ccc(NC4CCCC4)cc3)ccc2[nH]1` [Example 58-n, 4-{3-[5-(4-Cyclopentylamino-benzenesulfonyloxy)-1H-benzoimidazol-2-yl]-ureido}-butyric acid ethyl ester], for which the midpoint of inhibition, the IC50, lay at 0.6 µM.

For `O=C(NCCCn1ccnc1)Nc1nc2cc(OS(=O)(=O)c3ccc(NC4CCCC4)cc3)ccc2[nH]1` [Example 58-p, 4-Cyclopentylamino-benzenesulfonic acid 2-[3-(3-imidazol-1-yl-propyl)-ureido]-1H-benzoimidazol-5-yl ester], the IC50 came out at 0.6 µM.

For `O=C(O)[C@@H]1CCCN1C(=O)Nc1nc2cc(OS(=O)(=O)c3ccc(NC4CCCC4)cc3)ccc2[nH]1` [Example 58-q, 1-[5-(4-Cyclopentylamino-benzenesulfonyloxy)-1H-benzoimidazol-2S-ylcarbamoyl]-pyrrolidine-2-carboxylic acid], the IC50 amounted to 1 µM.

`CCOC(=O)C1CCN(C(=O)Nc2nc3cc(OS(=O)(=O)c4ccc(NC5CCCC5)cc4)ccc3[nH]2)CC1` [Example 58-t, 1-[5-(4-Cyclopentylamino-benzenesulfonyloxy)-1H-benzoimidazol-2-yl-carbamoyl]-piperidine-4-carboxylic acid ethyl ester] gave an IC50 of 9 µM.

For `CCC(C)(C)NC(=O)Nc1nc2cc(OS(=O)(=O)c3ccc(NC4CCCC4)cc3)ccc2[nH]1` [Example 58-z, 4-Cyclopentylamino-benzenesulfonic acid 2-[3-(1,1-dimethyl-propyl)-ureido]-1H-benzoimidazol-5-yl ester], it took 2.23 µM to reach half-maximal inhibition (IC50).

Compound `O=C(Nc1nc2cc(OS(=O)(=O)c3ccc(NCCN4CCNCC4)cc3)ccc2[nH]1)C1CC1` [Example 60-aa, 4-(2-Piperazin-1-yl-ethylamino)-benzene-sulfonic acid 2-(cyclopropanecarbonyl-amino)-1H-benzoimidazol-5-yl ester] yielded an IC50 of 3.9 µM.

As to `NC(=O)C1CCCCC1Nc1ccc(S(=O)(=O)Oc2ccc3[nH]c(NC(=O)C4CC4)nc3c2)cc1` (stereo not drawn) [Example 60-ab, 4-(2-Carbamoyl-cyclohexylamino)-benzenesulfonic acid 2-(cyclopropanecarbonyl-amino)-1H-benzoimidazol-5-yl ester], the IC50 amounted to 4 µM.

Consider `CC(=O)NCCNc1ccc(S(=O)(=O)Oc2ccc3[nH]c(NC(=O)C4CC4)nc3c2)cc1` [Example 60-ac, 4-(2-Acetylamino-ethylamino)-benzenesulfonic acid 2-(cyclopropanecarbonyl-amino)-1H-benzoimidazol-5-yl ester], for which the IC50 turned out to be 0.8 µM.

Consider `NCCNCCNc1ccc(S(=O)(=O)Oc2ccc3[nH]c(NC(=O)C4CC4)nc3c2)cc1` [Example 60-ad, 4-[2-(2-Amino-ethylamino)-ethylamino]-benzenesulfonic acid 2-(cyclopropanecarbonyl-amino)-1H-benzoimidazol-5-yl ester], for which the IC50 was found to be 1.3 µM.

In turn, `O=C(Nc1nc2cc(OS(=O)(=O)c3ccc(NCCCN4CCCC4=O)cc3)ccc2[nH]1)C1CC1` [Example 60-ae, 4-[3-(2-Oxo-pyrrolidin-1-yl)-propylamino]-benzenesulfonic acid 2-(cyclopropanecarbonyl-amino)-1H-benzoimidazol-5-yl ester] gave an IC50 of 2.2 µM.

Compound `O=C(Nc1nc2cc(OS(=O)(=O)c3ccc(NC4CCC4)cc3)ccc2[nH]1)C1CC1` [Example 60-ah, 4-Cyclobutylamino-benzenesulfonic acid 2-(cyclopropanecarbonyl-amino)-1H-benzoimidazol-5-yl ester] registered an IC50 of 0.55 µM.

Compound `O=C(Nc1nc2cc(OS(=O)(=O)c3ccc(NCCOCCO)cc3)ccc2[nH]1)C1CC1` [Example 60-ai, 4-[2-(2-Hydroxy-ethoxy)-ethylamino]-benzenesulfonic acid 2-(cyclopropanecarbonyl-amino)-1H-benzoimidazol-5-yl ester] gave an IC50 of 1.6 µM.

The compound `CNc1ccc(S(=O)(=O)Oc2ccc3[nH]c(NC(=O)C4CC4)nc3c2)cc1` [Example 60-b, 4-Methylamino-benzenesulfonic acid 2-(cyclopropanecarbonyl-amino)-1H-benzoimidazol-5-yl ester] came in with an IC50 of 0.15 µM.

For the compound `O=C(Nc1nc2cc(OS(=O)(=O)c3ccc(NCCO)cc3)ccc2[nH]1)C1CC1` [Example 60-c, 4-(2-Hydroxy-ethylamino)-benzenesulfonic acid 2-(cyclopropanecarbonyl-amino)-1H-benzoimidazol-5-yl ester], the IC50 amounted to 0.34 µM.

In turn, `O=C(Nc1nc2cc(OS(=O)(=O)c3ccc(NCCCO)cc3)ccc2[nH]1)C1CC1` [Example 60-d, 4-(3-Hydroxy-propylamino)-benzenesulfonic acid 2-(cyclopropanecarbonyl-amino)-1H-benzoimidazo1-5-yl ester] showed an IC50 of 0.9 µM.

The compound `O=C(Nc1nc2cc(OS(=O)(=O)c3ccc(NCCCCO)cc3)ccc2[nH]1)C1CC1` [Example 60-e, 4-(4-Hydroxy-butylamino)-benzenesulfonic acid 2-(cyclopropanecarbonyl-amino)-1H-benzoimidazol-5-yl ester] displayed an IC50 of 0.9 µM.

In turn, `COCC(C)Nc1ccc(S(=O)(=O)Oc2ccc3[nH]c(NC(=O)C4CC4)nc3c2)cc1` (stereo not drawn) [Example 60-f, 4-(2-Methoxy-1-methyl-ethylamino)-benzenesulfonic acid 2-(cyclopropanecarbonyl-amino)-1H-benzoimidazol-5-yl ester] registered an IC50 of 1 µM.

With `O=C(Nc1nc2cc(OS(=O)(=O)c3ccc(NCCN4CCCC4)cc3)ccc2[nH]1)C1CC1` [Example 60-g, 4-(2-Pyrrolidin-1-yl-ethylamino)-benzenesulfonic acid 2-(cyclopropanecarbonyl-amino)-1H-benzoimidazol-5-yl ester], the IC50 is 1.5 µM.

Regarding `CC(CO)Nc1ccc(S(=O)(=O)Oc2ccc3[nH]c(NC(=O)C4CC4)nc3c2)cc1` (stereo not drawn) [Example 60-i, 4-(2-Hydroxy-1-methyl-ethylamino)-benzenesulfonic acid 2-(cyclopropanecarbonyl-amino)-1H-benzoimidazol-5-yl ester], the IC50 came out at 0.3 µM.

`CC(C)(CO)CNc1ccc(S(=O)(=O)Oc2ccc3[nH]c(NC(=O)C4CC4)nc3c2)cc1` [Example 60-l, 4-(3-Hydroxy-2,2-dimethyl-propylamino)-benzenesulfonic acid 2-(cyclopropanecarbonyl-amino)-1H-benzoimidazol-5-yl ester] displayed an IC50 of 0.4 µM.

In turn, `O=C(Nc1nc2cc(OS(=O)(=O)c3ccc(NCc4cccnc4)cc3)ccc2[nH]1)C1CC1` [Example 60-m, 4-[(Pyridin-3-yl-methyl)-amino]-benzenesulfonic acid 2-(cyclopropanecarbonyl-amino)-1H-benzoimidazol-5-yl ester] came in with an IC50 of 0.5 µM.

`CN1CCN(CCCNc2ccc(S(=O)(=O)Oc3ccc4[nH]c(NC(=O)C5CC5)nc4c3)cc2)CC1` [Example 60-n, 4-[3-(4-Methyl-piperazin-1-yl)-propylamino]-benzenesulfonic acid 2-(cyclopropanecarbonyl-amino)-1H-benzoimidazol-5-yl ester] returned an IC50 of 2 µM.

As to `O=C(Nc1nc2cc(OS(=O)(=O)c3ccc(NC4CCC(O)CC4)cc3)ccc2[nH]1)C1CC1` (stereo not drawn) [Example 60-p, 4-(4-Hydroxy-cyclohexylamino)-benzenesulfonic acid 2-(cyclopropanecarbonyl-amino)-1H-benzoimidazol-5-yl ester], the IC50 is 1.2 µM.

In turn, `CCN(CC)CCNc1ccc(S(=O)(=O)Oc2ccc3[nH]c(NC(=O)C4CC4)nc3c2)cc1` [Example 60-q, 4-(2-Diethylamino-ethylamino)-benzenesulfonic acid 2-(cyclopropanecarbonyl-amino)-1H-benzoimidazol-5-yl ester] gave an IC50 of 1.8 µM.

What is called IC50 is the concentration that gives 50% inhibition. Low values mean inhibition by little substance, high ones a need for much substance. What is called inhibition is the percentage by which the read-out fell short of the control. Low values mean a response near the control, high ones a response far below the control.
